Experimental data reported in publication PMC9631117, “Epitope length variants balance protective immune responses and viral escape in HIV-1 infection” (Cell Reports, 2022).
“Also recorded” adds a separate entry of the source.

Experiments:
ERAP1/2 = details: incubation with ERAP1/2 for 140 min, Figure 1G, result in words
[1] = system: KK10-specific CTL clone G12C; assay: Competition IFN-γ ELISpot with KK10-specific CTL clone G12C and T2-HLA-B*27:05 cells; type: cell-based, human; details: result in words; for Effect on IFN-γ release by G12C in response to KK10 at the EC50 concentration: peptide pre-incubated 30 min at 37°C with T2-HLA-B*27:05 cells at molar ratios 1-800 relative to KK10; for Inhibition of the G12C response to KK10 at the amounts produced by proteasomal digestion: comparison of competition ELISpot with the processing data
Protocol: G12C cells were expanded as described previously([Iversen et al., 2006]) and rested for 2 days in fresh medium supplemented with IL-2 (20 IU/mL) and IL-15 (25 ng/mL) before testing in IFN-γ ELISpot assays (Merck Millipore) ([Tenzer et al., 2009], [2014]). TAP-deficient T2 cells were transfected with HLA-B^∗27:05 to generate T2-HLA-B^∗27:05 cells ([Kuipers et al., 1996]). These cells were used in competition assays to minimize the potentially confounding effects of internally loaded peptides and other HLA class I and class II molecules. […] The EC50 concentration was determined in preliminary ELISpot assays as the concentration required to elicit half-maximal IFN-γ production ([Tenzer et al., 2009], [2014]). Samples were tested in triplicate or quadruplicate. G12C responses were expressed as spot-forming units per 10^6 cells. Standard ex vivo IFN-γ ELISpot assays were performed as described previously ([Tenzer et al., 2009], [2014]).

HLA-B*27:05 = HLA-B*27:05 (Homo sapiens, UniProt P01889, D138H/D201E/E176V/E204Q/G107R/H137Y/K202T/N104T/N87E/Q56L/Q94K/R106L/R155S/R180L/S101D/S121N/S48T/Y140D/Y33H/Y91C); assay: Refolding of epitope-form peptides with HLA-B*27:05 heavy chain and β2m (heterotrimer formation); type: binding; details: rapid dilution refold, size exclusion, mass spectrometry, result in words
Excerpt: HLA-B^∗27:05 heavy chain and β2M proteins were expressed and purified as described previously ([Burgess, 2009]; [Tenzer et al., 2009]) and refolded with peptide using a rapid dilution method ([Tsumoto et al., 2003]). Heterotrimeric complexes were purified via size exclusion using a HiLoad 26/600 Superdex 75 pg column fitted to an AKTA Purifier FPLC System (GE Healthcare). Eluent fractions corresponding to absorbance peaks were examined via SDS-PAGE. Heterotrimeric complexes were then purified again via size exclusion using a Superdex 75 10/300 GL column fitted to an AKTA Purifier FPLC System (GE Healthcare). Correctly refolded heterotrimers were concentrated to > 10 mg/mL for crystallization trials using Amicon Ultra-0.5 Centrifugal Filter Units with Ultracel-10 Membranes (Merck Millipore). Optimal protein concentrations were determined for each complex using a PCT Pre-Crystallization Test (Hampton Research). […] Crystallization was carried out using the sitting-drop vapor-diffusion method. Briefly, crystallization screen reagents (Hampton Research) were dispensed into a CrystalQuick 96 Well Sitting Drop Plate (Greiner) using a Hydra eDrop II (Thermo Fisher Scientific), and 10 nL of protein was dispensed as a sitting drop in each well after mixing with 10 nL of the corresponding well buffer using a Microsys Liquid Handler (Cartesian Technologies). Crystal screens were stored at 4°C using a Protein Crystallization Imager (Formulatrix). Crystals obtained from the screens were immersed in reservoir buffer containing 20% glycerol as a cryoprotectant and vitrified at 100 K in liquid nitrogen. X-ray diffraction was carried out on beamlines at the European Synchrotron Radiation Facility, Grenoble, France (www.esrf.eu) or at the Diamond Light Source, Didcot, UK (www.diamond.ac.uk).

TAP = assay: TAP-peptide competitive binding assay; details: result in words; for Normalized TAP affinity relative to KK10: competitive binding, Figure 1E
[2] = system: PBMCs isolated from HLA-B*27:05+ patients with chronic HIV-1 infection; assay: Ex vivo IFN-γ ELISpot; type: cell-based, human; details: PBMCs of ten HLA-B*27:05+ patients, result in words
KIR3DL1*001 = KIR3DL1*001 binding assay (dextramer staining of KIR3DL1*001-transfected BA/F3 cells); details: peptide complexed with HLA-B*27:05 dextramer; Figure 7A; result in words
Protocol: Each line was stained with LIVE/DEAD Fixable Violet (Thermo Fisher Scientific). […] The parental line was used as a control for each condition. Samples were tested in duplicate.

Substance: GEIYKRWIILGLNKI [GI15]
- ERAP1/2 trimming (reduction in abundance) (ERAP1/2): trimmed significantly more than other epitope forms

Substance: KRWI [KI4]
- Effect on IFN-γ release by G12C in response to KK10 at the EC50 concentration [1]: less striking than those of the longer minitopes
- Formation of heterotrimeric complexes with HLA-B*27:05 heavy chain and β2m in refolds (HLA-B*27:05): formation of heterotrimeric complexes; also recorded: refolded inefficiently
- Normalized TAP affinity relative to KK10 (TAP): lowest affinities
- Peptide-specific IFN-γ release (immunogenicity) [2]: poor immunogenicity

Substance: KRWII [KI5]
- Effect on IFN-γ release by G12C in response to KK10 at the EC50 concentration [1]: less striking than those of the longer minitopes
- Formation of heterotrimeric complexes with HLA-B*27:05 heavy chain and β2m in refolds (HLA-B*27:05): refolded inefficiently
- Formation of heterotrimeric complexes with HLA-B*27:05 heavy chain and β2m in refolds (HLA-B*27:05; listed as KL5): formation of heterotrimeric complexes
- Normalized TAP affinity relative to KK10 (TAP): lowest affinities
- Peptide-specific IFN-γ release (immunogenicity) [2]: poor immunogenicity

Substance: KRWIIL [KL6]
- Inhibition of the G12C response to KK10 at the amounts produced by proteasomal digestion [1]: more than halve the G12C response to KK10
- Normalized TAP affinity relative to KK10 (TAP): exceeded that of the immunodominant HLA-B^∗57:01/B^∗5703-restricted HIV-1 epitope TW10
- Peptide-specific IFN-γ release (immunogenicity) [2]: poor immunogenicity

Substance: KRWIILG [KG7]
- Normalized TAP affinity relative to KK10 (TAP): exceeded that of the immunodominant HLA-B^∗57:01/B^∗5703-restricted HIV-1 epitope TW10
- Peptide-specific IFN-γ release (immunogenicity) [2]: poor immunogenicity

Substance: KRWIILGL [KL8]
- Inhibition of the G12C response to KK10 at the amounts produced by proteasomal digestion [1]: more than halve the G12C response to KK10
- KIR3DL1 binding relative to KK10 (KIR3DL1*001): Further reductions
- Normalized TAP affinity relative to KK10 (TAP): exceeded that of the immunodominant HLA-B^∗57:01/B^∗5703-restricted HIV-1 epitope TW10
- TAP-adjusted production of KK10 epitope forms (predicted relative abundance in the ER) (TAP; proteasomal production adjusted for TAP interactions, Figure 1F): dominant minitope
- Peptide-specific IFN-γ release (immunogenicity) [2]: Specific IFN-γ release was identified

Substance: KRWIIMGL [KL8-M]
- KIR3DL1 binding relative to KK10 (KIR3DL1*001): marginally increased binding to KIR3DL1
